The results in this text go back to ChEMBL document CHEMBL1201862, “PubChem BioAssay data set” (2004).

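Five compound concentrations were applied to cells in 96-well plates for 48 hours; endpoints were derived by simple linear interpolation of the resulting dose-response curve. GI50 marks 50% less growth.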 Activity calls are given as the source filed them. Rule as the data show it: active = GI50 up to about 1.1 µM and inactive = higher.

Some test systems named below: SK-MEL-28; MOLT-4; SK-MEL-5; A498; SNB-19; SW-620; OVCAR-8; SK-MEL-2; SN12C; NCI-H23; CCRF-CEM; UACC-257; COLO 205; SK-OV-3; OVCAR-5; OVCAR-3; RPMI-8226.
Common to all, as to test: NCI anticancer screen, dose series, 48 h

Turning to `Cc1cc(C)c(C(=O)O)c(SSc2cc(C)cc(C)c2C(=O)O)c1`, the GI50 in the assay with SK-MEL-28, in the assay on MOLT-4, in the assay with SK-MEL-5, in the assay with A498, in the assay on SNB-19 and with SW-620 was > 100 µM (inactive) each time. The GI50 in the assay on OVCAR-8 is > 100 µM (inactive); with SK-MEL-2, > 100 µM (inactive); in the assay on SN12C it was > 100 µM (inactive); with NCI-H23, > 100 µM (inactive); in the assay with CCRF-CEM it was 57.7 µM (inactive); in the assay with UACC-257, > 100 µM (inactive). In addition, the GI50 in the assay on COLO 205, in the assay on SK-OV-3 and in the assay on OVCAR-5 was > 100 µM (inactive) throughout.

As to `O=C(NCCCCCCNC(=O)NC1OCC(O)C(O)C1O)NC1OCC(O)C(O)C1O` (centres undefined), the GI50 in the assay on SK-MEL-28 was > 100 µM (inactive); in the assay on MOLT-4 it was > 100 µM (inactive); with SK-MEL-5, > 100 µM (inactive); in the assay with SNB-19, < 0.01 µM (active); in the assay with SW-620 it was > 100 µM (inactive); in the assay on OVCAR-8, > 100 µM (inactive). The GI50 in the assay with SK-MEL-2, in the assay on SN12C, in the assay on NCI-H23, in the assay on OVCAR-3, in the assay on CCRF-CEM and in the assay on COLO 205 was > 100 µM (inactive) in each case. In addition, the GI50 in the assay with RPMI-8226, in the assay on SK-OV-3 and in the assay with OVCAR-5 was > 100 µM (inactive) throughout.

As for `CN(C)CCS/C(=N\c1ccccc1)n1cccc1`, the GI50 in the assay on SK-MEL-28 is > 100 µM (inactive); with MOLT-4 it was 49.9 µM (inactive); in the assay with SK-MEL-5, 35.9 µM (inactive); in the assay on SNB-19 it was > 100 µM (inactive); in the assay on SW-620, > 100 µM (inactive); in the assay on OVCAR-8 it was > 100 µM (inactive). The GI50 in the assay with SK-MEL-2 was 44.7 µM (inactive); with SN12C it was 54.1 µM (inactive); with NCI-H23 it was 72.8 µM (inactive); with OVCAR-3, > 100 µM (inactive); with CCRF-CEM, 57.7 µM (inactive); with UACC-257, 42.9 µM (inactive). In addition, the GI50 with COLO 205, in the assay with RPMI-8226, with SK-OV-3 and with OVCAR-5 was > 100 µM (inactive) in each case.

As for `COc1ccc(/C=C2\N=C(c3ccccc3)N(Nc3nnc(NN4C(=O)/C(=C/c5ccc(OC)cc5)N=C4c4ccccc4)c4ccccc34)C2=O)cc1`, the GI50 was 71.1 µM (inactive) in the assay with SK-MEL-28; 29.6 µM (inactive) with MOLT-4; 48.5 µM (inactive) in the assay with SK-MEL-5; > 100 µM (inactive) with A498; > 100 µM (inactive) in the assay with SNB-19; 55.2 µM (inactive) in the assay with SW-620. In addition, the GI50 in the assay on OVCAR-8 was > 100 µM (inactive); in the assay on SN12C it was 68.5 µM (inactive); in the assay with NCI-H23 it was > 100 µM (inactive); in the assay with CCRF-CEM, 30.7 µM (inactive); in the assay on UACC-257, > 100 µM (inactive); in the assay with COLO 205, > 100 µM (inactive). The GI50 was 26.4 µM (inactive) in the assay on RPMI-8226 and > 100 µM (inactive) in the assay on OVCAR-5.

As for `N#Cc1ccc(Sc2nc3ccccc3[nH]2)cc1`, the GI50 with SK-MEL-28 was > 100 µM (inactive); in the assay with MOLT-4, 94 µM (inactive); in the assay on SK-MEL-5 it was 34.4 µM (inactive); with SNB-19, > 100 µM (inactive); in the assay on SW-620, > 100 µM (inactive); in the assay with OVCAR-8 it was > 100 µM (inactive). Further, the GI50 in the assay with SK-MEL-2, with SN12C, in the assay with NCI-H23, in the assay with CCRF-CEM, in the assay with UACC-257 and with COLO 205 was > 100 µM (inactive) in each case. The GI50 was > 100 µM (inactive) in the assay with SK-OV-3 and 42.8 µM (inactive) in the assay with OVCAR-5.
